Patent US6803378B2, “HIV integrase inhibitors” (Bristol-Myers Squibb Company, priority 2000, dated 2004)

Target: T1, HIV-1 integrase (Human immunodeficiency virus type 1 group M subtype B, UniProt P04585)
T1 construct: Purified recombinant HIV-1 integrase was incubated with immobilized precleaved substrate DNA
Assay: In vitro activity against integrase, Method A (immobilized precleaved substrate DNA, biotinylated target DNA, 96 well plate)
Format: biochemical
Details: Assay Method A, read-out: Percent inhibition of HIV Integrase at 70 uM
Description: The in vitro activities, against integrase, of compounds of the present invention were measured by one of the following three methods.
In Method A, the in vitro activity against integrase was measured in a manner which was similar to previously disclosed methods (cf. Hazuda, D. J.; Felock, P.; Witmer, M.; Wolfe, A.; Stillmock, K.; Grobler, J. A.; Espeseth, A.; Gabryelski, L.; Schleif, W.; Blau, C.; Miller, M. D. Science, 2000, 287, 646) Purified recombinant HIV-1 integrase was incubated with immobilized precleaved substrate DNA in a 96 well plate for 20 min at 37° C. After the integration complex was formed, compounds at desired concentrations were added to the wells followed by a 10 min incubation at 37° C. Biotinyted Target DNA was then added and the reaction was carried out for an additional 1 hour at 37° C. Wells were then washed thoroughly to remove any free DNA and integration activity was measured by using a commercial kit to quantitate the amount of biotinyted target DNA integrated into the substrate.

Structure (SMILES)	inhibition at 70 µM [%]
COc1ccc(CN(C)C(=O)/C=C(\O)C(=O)O)cc1 [Compound 31, 2-Hydroxy-3-[(4-methoxy-benzyl)-methyl-carbamoyl]-acrylic acid]	82
COc1ccc(C(c2ccc(OC)cc2)N(C)C(=O)/C=C(\O)C(=O)O)cc1 [Compound 6, 3-{[Bis-(4-methoxy-phenyl)-methyl]-methyl-carbamoyl}-2-hydroxy-acrylic acid]	75
O=C(O)/C(O)=C/C(=O)N(CCc1ccc(F)cc1)Cc1ccccc1Cl [Compound 18, 3-{(2-Chloro-benzyl)-[2-(4-fluoro-phenyl)-ethyl]-carbamoyl}-2-hydroxy-acrylic acid]	89.5
CN(C(=O)/C=C(\O)C(=O)O)C(c1ccc(F)cc1)c1cccnc1 (centres unmarked) [Compound 77, 3-{[(4-Fluoro-phenyl)-pyridin-3-yl-methyl]-methyl-carbamoyl}-2-hydroxy-acrylic acid]	60
CC(C)(C)N(Cc1ccc(F)cc1)C(=O)/C=C(\O)C(=O)O [Compound 27, 3-[tert-Butyl-(4-fluoro-benzyl)-carbamoyl]-2-hydroxy-acrylic acid]	33.5
CN(Cc1cccc(C(F)(F)F)c1)C(=O)/C=C(\O)C(=O)O [Compound 37, 2-Hydroxy-3-[methyl-(3-trifluoromethyl-benzyl)-carbamoyl]-acrylic acid]	82.5
O=C(O)/C(O)=C/C(=O)N(CCCc1ccccc1)Cc1ccc(F)cc1 [Compound 43, 3-[(4-Fluoro-benzyl)-(3-phenyl-propyl)-carbamoyl]-2-hydroxy-acrylic acid]	93.5
CCN(Cc1ccc(F)cc1)C(=O)/C=C(\O)C(=O)O [Compound 32, 3-[Ethyl-(4-fluoro-benzyl)-carbamoyl]-2-hydroxy-acrylic acid]	93
O=C(O)/C(O)=C/C(=O)N(CCc1ccc(F)cc1)Cc1csc2ccc(Cl)cc12 [Compound 20, 3-{(5-Chloro-benzo[b]thiophen-3-ylmethyl)-[2-(4-fluoro-phenyl)-ethyl]-carbamoyl}-2-hydroxy-acrylic acid]	97.5
CN(C(=O)/C=C(\O)C(=O)O)C(c1ccc(Cl)cc1)c1ccc(Cl)cc1 [Compound 4, 3-{[Bis-(4-chloro-phenyl)-methyl]-methyl-carbamoyl}-2-hydroxy-acrylic acid]	90
CC(c1ccccc1)N(Cc1ccc(F)cc1)C(=O)/C=C(\O)C(=O)O (centres unmarked) [Compound 23, 3-[(4-Fluoro-benzyl)-(1-phenyl-ethyl)-carbamoyl]-2-hydroxy-acrylic acid]	55
CN(Cc1ccccc1)C(=O)/C=C(\O)C(=O)O [Compound 17, 3-(Benzyl-methyl-carbamoyl)-2-hydroxy-acrylic acid]	89.5
CN(Cc1cccc(Cc2ccc(F)cc2)c1)C(=O)/C=C(\O)C(=O)O [Compound 2, 3-{[3-(4-Fluoro-benzyl)-benzyl]-methyl-carbamoyl}-2-hydroxy-acrylic acid]	88
CC(C)N(Cc1ccc(F)cc1)C(=O)/C=C(\O)C(=O)O [Compound 29, 3-[(4-Fluoro-benzyl)-isopropyl-carbamoyl]-2-hydroxy-acrylic acid]	38
COCCN(Cc1ccc(F)cc1)C(=O)/C=C(\O)C(=O)O [Compound 42, 3-[(4-Fluoro-benzyl)-(2-methoxy-ethyl)-carbamoyl]-2-hydroxy-acrylic acid]	91
O=C(O)/C(O)=C/C(=O)N(Cc1ccc(F)cc1)Cc1ccc(Cl)cc1 [Compound 24, 3-[(4-Chloro-benzyl)-(4-fluoro-benzyl)-carbamoyl]-2-hydroxy-acrylic acid]	90
CN(Cc1cccc(F)c1)C(=O)/C=C(\O)C(=O)O [Compound 40, 3-[(3-Fluoro-benzyl)-methyl-carbamoyl]-2-hydroxy-acrylic acid]	90
O=C(O)/C(O)=C/C(=O)N(Cc1ccc(F)cc1)Cc1ccccc1Cl [Compound 19, 3-[(2-Chloro-benzyl)-(4-fluoro-benzyl)-carbamoyl]-2-hydroxy-acrylic acid]	96.5
CN(C(=O)/C=C(\O)C(=O)O)C(c1ccc(F)cc1)c1ccc(F)cc1 [Compound 5, 3-{[Bis-(4-fluoro-phenyl)-methyl]-methyl-carbamoyl}-2-hydroxy-acrylic acid]	65
COc1ccc(CN(Cc2ccc(F)cc2)C(=O)/C=C(\O)C(=O)O)c(OC)c1 [Compound 35, 3-[(2,4-Dimethoxy-benzyl)-(4-fluoro-benzyl)-carbamoyl]-2-hydroxy-acrylic acid]	95.5
O=C(O)/C(O)=C/C(=O)N(Cc1ccc(F)cc1)Cc1csc2ccc(Cl)cc12 [Compound 21, 3-[(5-Chloro-benzo[b]thiophen-3-ylmethyl)7(4-fluoro-benzyl)-carbamoyl]-2-hydroxy-acrylic acid]	98

Structure (SMILES)	inhibition at 70 µM [%]
CN(Cc1ccc(OCc2ccc(F)cc2)cc1)C(=O)/C=C(\O)C(=O)O [Compound 1, 3-{[4-(4-Fluoro-benzyloxy)-benzyl]-methyl-carbamoyl}-2-hydroxy-acrylic acid]	40
O=C(O)CNC(=O)/C(O)=C/C(=O)N(Cc1ccc(F)cc1)Cc1ccc(F)cc1 [Compound 145, {3-[Bis-(4-fluoro-benzyl)-carbamoyl]-2-hydroxy-acryloylamino}-acetic acid]	95
COc1cccc(CN(C)C(=O)/C=C(\O)C(=O)O)c1 [Compound 33, 2-Hydroxy-3-[(3-methoxy-benzyl)-methyl-carbamoyl]-acrylic acid]	90
CN(Cc1ccccc1-c1ccccc1)C(=O)/C=C(\O)C(=O)O [Compound 39, 3-(Biphenyl-2-ylmethyl-methyl-carbamoyl)-2-hydroxy-acrylic acid]	85
CN(Cc1ccccc1OCc1ccc(F)cc1)C(=O)/C=C(\O)C(=O)O [Compound 82, 3-{[2-(4-Fluoro-benzyloxy)-benzyl]-methyl-carbamoyl}-2-hydroxy-acrylic acid]	80
CN(Cc1ccccc1Br)C(=O)/C=C(\O)C(=O)O [Compound 12, 3-[(2-Bromo-benzyl)-methyl-carbamoyl]-2-hydroxy-acrylic acid]	85
O=C(O)/C(O)=C/C(=O)N(CCc1ccccc1)Cc1ccccc1 [Compound 13, 3-(Benzyl-phenethyl-carbamoyl)-2-hydroxy-acrylic acid]	94
Cc1ccc(CN(C)C(=O)/C=C(\O)C(=O)O)cc1 [Compound 30, 2-Hydroxy-3-[methyl-(4-methyl-benzyl)-carbamoyl]-acrylic acid]	84
CN(Cc1ccc(OCc2ccccc2)cc1)C(=O)/C=C(\O)C(=O)O [Compound 36, 3-[(4-Benzyloxy-benzyl)-methyl-carbamoyl]-2-hydroxy-acrylic acid]	30
CN(Cc1ccccc1F)C(=O)/C=C(\O)C(=O)O [Compound 38, 3-[(2-Fluoro-benzyl)-methyl-carbamoyl]-2-hydroxy-acrylic acid]	70
CN(Cc1cccc(OCc2ccc(F)cc2)c1)C(=O)/C=C(\O)C(=O)O [Compound 3, 3-{[3-(4-Fluoro-benzyloxy)-benzyl]-methyl-carbamoyl}-2-hydroxy-acrylic acid]	99
O=C(O)/C(O)=C/C(=O)N(Cc1ccc(F)cc1)Cc1ccc(F)cc1F [Compound 25, 3-[(2,4-Difluoro-benzyl)-(4-fluoro-benzyl)-carbamoyl]-2-hydroxy-acrylic acid]	96.5
CN(Cc1ccc(F)c2ccccc12)C(=O)/C=C(\O)C(=O)O [Compound 41, 3-[(4-Fluoro-naphthalen-1-ylmethyl)-methyl-carbamoyl]-2-hydroxy-acrylic acid]	95
O=C(O)/C(O)=C/C(=O)N(Cc1ccc(F)cc1)Cc1cccc(Cl)c1 [Compound 28, 3-[(3-Chloro-benzyl)-(4-fluoro-benzyl)-carbamoyl]-2-hydroxy-acrylic acid]	96.5
O=C(O)/C(O)=C/C(=O)N(Cc1ccc(F)cc1)c1ccc(F)cc1OCc1ccc(F)cc1 [Compound 88, 3-{(4-Fluoro-benzyl)-[4-fluoro-2-(4-fluoro-benzyloxy)-phenyl]-carbamoyl}-2-hydroxy-acrylic acid]	90
O=C(O)/C(O)=C/C(=O)N(Cc1ccc(F)cc1)Cc1ccc(F)c(F)c1 [Compound 26, 3-[(3,4-Difluoro-benzyl)-(4-fluoro-benzyl)-carbamoyl]-2-hydroxy-acrylic acid]	97
CN(Cc1cccc(-c2ccccc2)c1)C(=O)/C=C(\O)C(=O)O [Compound 34, 3-(Biphenyl-3-ylmethyl-methyl-carbamoyl)-2-hydroxy-acrylic acid]	85
CN(Cc1csc2ccc(Cl)cc12)C(=O)/C=C(\O)C(=O)O [Compound 15, 3-[(5-Chloro-benzo[b]thiophen-3-ylmethyl)-methyl-carbamoyl]-2-hydroxy-acrylic acid]	97
CN(CCc1ccc(F)cc1)C(=O)/C=C(\O)C(=O)O [Compound 22, 3-{[2-(4-Fluoro-phenyl)-ethyl]-methyl-carbamoyl}-2-hydroxy-acrylic acid]	75
CN(C(=O)/C=C(\O)C(=O)O)C(c1ccccc1)c1ccccc1 [Compound 7, 3-(Benzhydryl-methyl-carbamoyl)-2-hydroxy-acrylic acid]	32
